Test results published in BigSolDB 2.1.

N=C(Nc1ccccc1)Nc1ccccc1
solubility (mole fraction)
Conditions | 273.15 K | 275.65 K | 278.15 K | 280.65 K | 283.15 K | 285.65 K
in acetonitrile | 0.00811 | 0.00911 | 0.0103 | 0.011 | 0.012 | 0.0131
in ethanol | 0.0139 | 0.0152 | 0.017 | 0.0191 | 0.0192 | 0.0214
in isobutanol | 0.0128 | 0.0138 | 0.0142 | 0.0166 | 0.0177 | 0.0183
in n-propanol | 0.0152 | 0.0171 | 0.0181 | 0.021 | 0.0215 | 0.0241
in toluene | 0.00134 | 0.00149 | 0.00178 | 0.00189 | 0.00219 | 0.0024

O=C(O)Cc1ccccc1Cl
solubility (mole fraction)
Conditions | 273.15 K | 278.15 K | 283.15 K | 288.15 K | 293.15 K | 298.15 K | 303.15 K | 308.15 K | 313.15 K | 318.15 K
in 2-butanone | 0.254 | 0.282 | 0.315 | 0.351 | 0.389 | 0.426 | 0.462 | 0.496 | 0.528 | 0.567
in acetone | 0.209 | 0.225 | 0.242 | 0.261 | 0.281 | 0.303 | 0.326 | 0.352 | 0.38 | 0.412
in acetonitrile | 0.0582 | 0.0738 | 0.0925 | 0.114 | 0.139 | 0.168 | 0.199 | 0.234 | 0.272 | 0.314
in cyclohexane | – | – | 0.00197 | 0.00263 | 0.00346 | 0.00454 | 0.00601 | 0.00799 | 0.0107 | 0.0145
in ethyl acetate | 0.175 | 0.193 | 0.214 | 0.237 | 0.258 | 0.284 | 0.312 | 0.342 | 0.372 | 0.407
in ethylbenzene | 0.0217 | 0.0278 | 0.0348 | 0.0437 | 0.0542 | 0.0678 | 0.0853 | 0.106 | 0.132 | 0.165
in isobutanol | 0.15 | 0.172 | 0.199 | 0.226 | 0.256 | 0.288 | 0.322 | 0.357 | 0.394 | 0.433
in isopropanol | 0.18 | 0.206 | 0.235 | 0.266 | 0.298 | 0.336 | 0.369 | 0.407 | 0.446 | 0.486
in n-butanol | 0.142 | 0.164 | 0.19 | 0.217 | 0.247 | 0.28 | 0.314 | 0.349 | 0.387 | 0.425
in n-propanol | 0.16 | 0.184 | 0.21 | 0.237 | 0.268 | 0.299 | 0.332 | 0.368 | 0.405 | 0.446
in toluene | 0.0241 | 0.0307 | 0.0388 | 0.0491 | 0.0617 | 0.0778 | 0.0975 | 0.122 | 0.153 | 0.191
in water | 0.000141 | 0.000186 | 0.000243 | 0.000311 | 0.000394 | 0.000506 | 0.000645 | 0.000821 | 0.00105 | 0.00134
